This is an account of results in BindingDB's records for patent US11192859 (2021).

Usually Kd stands for the concentration at which binding is half-saturated. Higher therefore signals a looser complex.

The target in the assay is Advanced glycosylation end product-specific receptor (Homo sapiens, UniProt Q15109). The assay can be described thus: Inhibitory Activity Assay. Here is the method: Table 2-3: Step 1. Add 50 μl anti-DIAPH1 (1:160 dilution in 0.1M NaHCO3 pH 9.6)/well. Incubate overnight at 4° C. Day 2 Step 2. Use the plate washer to aspirate anti-DIAPH11 and wash plates 4× with PBS 100 μl per well per wash. Step 3. Add 180 μl 3% BSA in 1×PBS. Incubate for 1.5 hrs at room temperature Step 4. Use the plate washer to aspirate the blocking solution and wash 5× with PBS 300 μl per well. Step 5. Add 50 μl of DIAPH1 containing lysate (85 μg) and incubate at RT for 3 hours. Step 6. Aspirate the lysate and wash the plate 5×(100 μl) on the plate washer. Step 7. Add 25 μl PBS to the wells. Step 8. Add 0.5 μL compound per well. Step 9. Add 24.5 μL GFP RAGE tail (125 nM) into each well for 2 hrs at room temperature. Step 10. Aspirate and wash 5× with PBS (100 μL) on the plate washer. Step 11. Add 100 μl PBS in each well. Step 12. Detection: Read on fluorescence plate reader excitation 435 nm and 485 nm emission
Chain of Advanced glycosylation end product-specific receptor (Q15109 whole entry): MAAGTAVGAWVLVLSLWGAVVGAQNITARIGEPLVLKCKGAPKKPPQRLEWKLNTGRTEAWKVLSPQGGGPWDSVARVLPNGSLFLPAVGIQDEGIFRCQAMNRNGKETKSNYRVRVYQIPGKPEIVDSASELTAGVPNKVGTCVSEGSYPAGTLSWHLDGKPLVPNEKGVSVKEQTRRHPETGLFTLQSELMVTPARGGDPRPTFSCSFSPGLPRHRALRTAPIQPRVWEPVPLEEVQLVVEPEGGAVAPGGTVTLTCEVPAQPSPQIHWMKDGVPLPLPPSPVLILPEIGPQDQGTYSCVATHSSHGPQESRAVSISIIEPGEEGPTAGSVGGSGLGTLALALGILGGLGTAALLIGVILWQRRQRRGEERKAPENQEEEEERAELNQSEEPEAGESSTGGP
The compound `CC(=O)Nc1ccc(-c2cc(C(=O)NCCN(C)C)c3ccccc3n2)cc1` [US11192859, Compound 4] showed a Kd of 56 µM.

Compound `CC(=O)Nc1ccc(-c2cc(C(=O)N3CCOCC3)c3ccccc3n2)cc1` [US11192859, Compound 5] showed a Kd of 41 µM.

Take `COCCNC(=O)c1cc(-c2ccc(NC(C)=O)cc2)nc2ccccc12` [US11192859, Compound 6]: the Kd was determined as 99 µM.

Turning to `CC(=O)Nc1ccc(-c2cc(C(=O)N3CCCC3)c3ccccc3n2)cc1` [US11192859, Compound 7], the affinity, expressed as Kd, was 77 µM.
